This note sets out measurements from patent publication US12569467B2, “Small molecules that treat or prevent viral infections” (priority 2022, dated 2026).

SMILES strings stand for the structures.

The test system of experiment [1] is SARS-CoV-2 variant Delta Spike protein pseudotyped lentiviral particles. Kind of experiment: microbe, parasite or virus in culture. It counts as cell-based, SARS-CoV-2 Delta variant. The note with it: Severe acute respiratory syndrome coronavirus 2, HEK293, read-out: EC50, inhibition of infection of Delta variant.
Experiment [2] relates to SARS-CoV-2 variant Omicron Spike protein pseudotyped lentiviral particles. Put plainly: microbe, parasite or virus in culture. As to conditions: Severe acute respiratory syndrome coronavirus 2, HEK293, read-out: EC50, inhibition of infection of Omicron variant. It counts as cell-based, SARS-CoV-2 Omicron variant.
In experiment [3] the test system is spike protein of Delta variant. It counts as binding, SARS-CoV2 Delta variant.
Experiment [4] has as its system spike protein of Omicron variant. In kind it is binding, SARS-CoV2 Omicron variant.

As for `O=C1Nc2ccccc2/C1=C\c1ccc(-c2cc(C(F)(F)F)cc(C(F)(F)F)c2)o1` [CD04872SC, 3-({5-[3,5-di(trifluoromethyl)phenyl]-2-furyl}methylidene)indolin-2-one], the figures for the EC50 in experiment [1] and in experiment [2] were 152 µM and 308 µM, respectively. For the same compound, the “thermal stability change in presence of compound” value in experiment [3] and in experiment [4] was “same stabilizing tendency” throughout.
